The term MIC denotes the smallest concentration in the dilution series that meets the test's criterion for growth inhibition. One may read the inhibition as the drop in the measured response relative to a control, in per cent. The HC50 is the concentration giving 50% haemolysis. A higher HC50 goes with less damage to red cells. For orientation: CC50 means the concentration that lowers cell viability or growth by half.

Data set [1] relates to Cryptococcus neoformans. Put plainly: Antifungal activity against Cryptococcus neoformans var. grubii ATCC 208821) assessed as growth inhibition after 36 hrs by monochromator plate assay relative to control. The class given is functional.
Data set [2] relates to Acinetobacter baumannii. Description: Antibacterial activity against Acinetobacter baumannii ATCC 19606 assessed as growth inhibition after 18 hrs by monochromator plate assay. The class given is functional.
In data set [3] the test system is Acinetobacter baumannii. Put plainly: Antibacterial activity against Acinetobacter baumannii ATCC 19606 assessed as growth inhibition at 32 ug/ml after 18 hrs by monochromator plate assay relative to control. The class given is functional.
The nature of data set [4]: (§1) Haemolytic activity against human whole blood after 70 mins by monochromator plate reader. As to conditions: whole blood. The format is ADME, tissue-based.
The subject of the next data set is Blood. The description is as §1. The class given is ADME, tissue-based. The conditions noted are these: blood, 1.167 h.
The test system of data set [5] is Pseudomonas aeruginosa. Description: Antibacterial activity against Pseudomonas aeruginosa ATCC 27853 assessed as growth inhibition after 18 hrs by monochromator plate assay. The class given is functional.
In data set [6] the test system is Cryptococcus neoformans. Put plainly: Antifungal activity against Cryptococcus neoformans var. grubii ATCC 208821 assessed as growth inhibition at 32 ug/ml after 36 hrs by monochromator plate assay relative to control. The class given is functional. The conditions noted are these: dose 32.0 µg/ml.
The subject of data set [7] is Staphylococcus aureus. Description: Antibacterial activity against methicillin-resistant Staphylococcus aureus ATCC 43300 assessed as growth inhibition after 18 hrs by monochromator plate assay. The format is functional.
The test system of data set [8] is Pseudomonas aeruginosa. Description: Antibacterial activity against Pseudomonas aeruginosa ATCC 27853 assessed as growth inhibition at 32 ug/ml after 18 hrs by monochromator plate assay relative to control. The format is functional.
Data set [9] concerns Escherichia coli. Description: Antibacterial activity against Escherichia coli ATCC 25922 assessed as growth inhibition after 18 hrs by monochromator plate assay. The class given is functional.
Data set [10] deals with Klebsiella pneumoniae. Description: Antibacterial activity against Klebsiella pneumoniae ATCC 700603 assessed as growth inhibition after 18 hrs by monochromator plate assay. The class given is functional.
In data set [11] the test system is Staphylococcus aureus. Description: Antibacterial activity against methicillin-resistant Staphylococcus aureus ATCC 43300 assessed as growth inhibition at 32 ug/ml after 18 hrs by monochromator plate assay relative to control. The class given is functional.
Data set [12] can be described thus: Cytotoxicity against HEK293 cells assessed as cell viability after 20 hrs by fluorescence assay. As to conditions: human. The format is cell-based.
The test system of data set [13] is Escherichia coli. Description: Antibacterial activity against Escherichia coli ATCC 25922 assessed as growth inhibition at 32 ug/ml after 18 hrs by monochromator plate assay relative to control. The class given is functional. As to conditions: dose 32.0 µg/ml.
Data set [14] deals with Candida albicans. Put plainly: Antifungal activity against Candida albicans ATCC 90028 assessed as growth inhibition after 36 hrs by monochromator plate assay. The format is functional.
Data set [15] concerns Klebsiella pneumoniae. Description: Antibacterial activity against Klebsiella pneumoniae ATCC 700603 assessed as growth inhibition at 32 ug/ml after 18 hrs by microplate reader assay relative to control. The class given is functional.
Data set [16] has as its system Candida albicans. Description: Antifungal activity against Candida albicans ATCC 90028 assessed as growth inhibition at 32 ug/ml after 36 hrs by monochromator plate assay relative to control. The class given is functional.

Each structure is given as a SMILES string. ≈ marks a conversion by molar mass, not a printed value. Calls of active or inactive are those of the source. Bounds are passed on as bounds.

Take `Cc1nc(-c2ccc(-c3ccccc3)cc2)sc1-c1cc(C(=O)Nc2ccccc2)n[nH]1`: the MIC result in the data set with Cryptococcus neoformans [1] and with Escherichia coli [9] was “inactive” in each case. For the same molecule, the MIC with Acinetobacter baumannii [2] was more than 32 µg/mL; in the data set on Pseudomonas aeruginosa [5], more than 32 µg/mL; in the data set on Staphylococcus aureus [7], 4 µg/mL (≈ 9.16 µM); with Klebsiella pneumoniae [10], more than 32 µg/mL; in the data set with Candida albicans [14], more than 32 µg/mL. Further, the inhibition at 32 µg/mL in the data set on Acinetobacter baumannii [3] was 1.6%; in the data set on Pseudomonas aeruginosa [8], 16.6%; in the data set with Staphylococcus aureus [11], 85.1%; with Klebsiella pneumoniae [15], 9.9%; with Candida albicans [16], 9.6%. Moreover, the HC50 at 1.167 h in data set [4] was more than 32 µg/mL. The HC10 in the data set on Blood is more than 32 µg/mL. Further, the inhibition entry with Cryptococcus neoformans [6] and in the data set on Escherichia coli [13] was “inactive” throughout. Further, in data set [12], the CC50 at 20 h was more than 32 µg/mL.

The values are drawn from ChEMBL document CHEMBL4732221, “Design, synthesis and bioactivity evaluation of novel pyrazole linked phenylthiazole derivatives in context of antibacterial activity” (Bioorg Med Chem Lett, 2021).
